Source: US20230263825A1, “ANTI-CANCER ACTIVITY OF PERBORATE SALTS” (priority 2020, published 2023)
Entries after “also recorded” stand apart in the source; their conditions may differ.

Experiment: Toxicology in rats, oral, histopathology
Format: in vivo
Excerpt: After 32 days, the rats were sacrificed and their organs were examined under a microscope.

Structure (SMILES): O.O.O.O.[Na+].[O-]B1OO1 [sodium perborate tetrahydrate]
- KIDNEY Edema, No Exam (rat, in vivo, po, 4 mg/kg): 0/10
- KIDNEY Notable or abnormal, % (rat, in vivo, po, 4 mg/kg): 0%
- KIDNEY Notable or abnormal, No Exam (rat, in vivo, po, 4 mg/kg): 0/10
- KIDNEY Within normal limits, % (rat, in vivo, po, 4 mg/kg): 100%
- KIDNEY Within normal limits, No Exam (rat, in vivo, po, 4 mg/kg): 10/10
- LIVER Fattening, % (rat, in vivo, po, 4 mg/kg): 0%
- LIVER Fattening, No Exam (rat, in vivo, po, 4 mg/kg): 0/10
- LIVER Infiltration, % (rat, in vivo, po, 4 mg/kg): 0%
- LIVER Infiltration, No Exam (rat, in vivo, po, 4 mg/kg): 0/10
- LIVER Notable or abnormal, % (rat, in vivo, po, 4 mg/kg): 0%
- LIVER Notable or abnormal, No Exam (rat, in vivo, po, 4 mg/kg): 0/10
- LIVER Within normal limits, % (rat, in vivo, po, 4 mg/kg): 100%
- LIVER Within normal limits, No Exam (rat, in vivo, po, 4 mg/kg): 10/10
- LUNG Lymphocytic infiltration, % (rat, in vivo, po, 4 mg/kg): 0%
- LUNG Lymphocytic infiltration, No Exam (rat, in vivo, po, 4 mg/kg): 0/10
- LUNG Notable or abnormal, % (rat, in vivo, po, 4 mg/kg): 0%
- LUNG Notable or abnormal, No Exam (rat, in vivo, po, 4 mg/kg): 0/10
- LUNG Pulmonary edema, % (rat, in vivo, po, 4 mg/kg): 0%
- LUNG Pulmonary edema, No Exam (rat, in vivo, po, 4 mg/kg): 0/10
- LUNG Within normal limits, % (rat, in vivo, po, 4 mg/kg): 100%
- LUNG Within normal limits, No Exam (rat, in vivo, po, 4 mg/kg): 10/10
- PANCREAS Notable or abnormal, % (rat, in vivo, po, 4 mg/kg): 0%
- PANCREAS Notable or abnormal, No Exam (rat, in vivo, po, 4 mg/kg): 0/10
- PANCREAS Within normal limits, % (rat, in vivo, po, 4 mg/kg): 100%
- PANCREAS Within normal limits, No Exam (rat, in vivo, po, 4 mg/kg): 10/10
- SPLEEN Notable or abnormal, % (rat, in vivo, po, 4 mg/kg): 0%
- SPLEEN Notable or abnormal, No Exam (rat, in vivo, po, 4 mg/kg): 0/10
- SPLEEN Within normal limits, % (rat, in vivo, po, 4 mg/kg): 100%
- SPLEEN Within normal limits, No Exam (rat, in vivo, po, 4 mg/kg): 10/10
- STOMACH Notable or abnormal, % (rat, in vivo, po, 4 mg/kg): 0%
- STOMACH Notable or abnormal, No Exam (rat, in vivo, po, 4 mg/kg): 0/10
- STOMACH Within normal limits, % (rat, in vivo, po, 4 mg/kg): 100%
- STOMACH Within normal limits, No Exam (rat, in vivo, po, 4 mg/kg): 10/10
- HEART Notable or abnormal, % (rat, in vivo, po, 8 mg/kg/day): 0%
- HEART Notable or abnormal, No Exam (rat, in vivo, po, 8 mg/kg/day): 0/10
- HEART Within normal limits, % (rat, in vivo, po, 8 mg/kg/day): 100%
- HEART Within normal limits, No Exam (rat, in vivo, po, 8 mg/kg/day): 10/10
- INTESTINE, Large Notable or abnormal, % (rat, in vivo, po, 8 mg/kg/day): 0%
- INTESTINE, Large Notable or abnormal, No Exam (rat, in vivo, po, 8 mg/kg/day): 0/10
- INTESTINE, Large Within normal limits, % (rat, in vivo, po, 8 mg/kg/day): 100%
- INTESTINE, Large Within normal limits, No Exam (rat, in vivo, po, 8 mg/kg/day): 10/10
- INTESTINE, Small Enteritis, % (rat, in vivo, po, 8 mg/kg/day): 10%
- INTESTINE, Small Enteritis, No Exam (rat, in vivo, po, 8 mg/kg/day): 1/10
- INTESTINE, Small Notable or abnormal, % (rat, in vivo, po, 8 mg/kg/day): 10%
- INTESTINE, Small Notable or abnormal, No Exam (rat, in vivo, po, 8 mg/kg/day): 1/10
- INTESTINE, Small Within normal limits, % (rat, in vivo, po, 8 mg/kg/day): 90%
- INTESTINE, Small Within normal limits, No Exam (rat, in vivo, po, 8 mg/kg/day): 9/10
- KIDNEY Edema, % (rat, in vivo, po, 8 mg/kg/day): 0%
- KIDNEY Edema, No Exam (rat, in vivo, po, 8 mg/kg/day): 0/10
- KIDNEY Notable or abnormal, % (rat, in vivo, po, 8 mg/kg/day): 0%
- KIDNEY Notable or abnormal, No Exam (rat, in vivo, po, 8 mg/kg/day): 0/10
- KIDNEY Within normal limits, % (rat, in vivo, po, 8 mg/kg/day): 100%
- KIDNEY Within normal limits, No Exam (rat, in vivo, po, 8 mg/kg/day): 10/10
- LIVER Fattening, % (rat, in vivo, po, 8 mg/kg/day): 0%
- LIVER Fattening, No Exam (rat, in vivo, po, 8 mg/kg/day): 0/10
- LIVER Infiltration, % (rat, in vivo, po, 8 mg/kg/day): 0%
- LIVER Infiltration, No Exam (rat, in vivo, po, 8 mg/kg/day): 0/10
- LIVER Notable or abnormal, % (rat, in vivo, po, 8 mg/kg/day): 0%
- LIVER Notable or abnormal, No Exam (rat, in vivo, po, 8 mg/kg/day): 0/10
- LIVER Within normal limits, % (rat, in vivo, po, 8 mg/kg/day): 100%
- LIVER Within normal limits, No Exam (rat, in vivo, po, 8 mg/kg/day): 10/10
- LUNG Lymphocytic infiltration, % (rat, in vivo, po, 8 mg/kg/day): 0%
- LUNG Lymphocytic infiltration, No Exam (rat, in vivo, po, 8 mg/kg/day): 0/10
- LUNG Notable or abnormal, % (rat, in vivo, po, 8 mg/kg/day): 0%
- LUNG Notable or abnormal, No Exam (rat, in vivo, po, 8 mg/kg/day): 0/10
- LUNG Pulmonary edema, % (rat, in vivo, po, 8 mg/kg/day): 0%
- LUNG Pulmonary edema, No Exam (rat, in vivo, po, 8 mg/kg/day): 0/10
- LUNG Within normal limits, % (rat, in vivo, po, 8 mg/kg/day): 100%
- LUNG Within normal limits, No Exam (rat, in vivo, po, 8 mg/kg/day): 10/10
- PANCREAS Notable or abnormal, % (rat, in vivo, po, 8 mg/kg/day): 0%
- PANCREAS Notable or abnormal, No Exam (rat, in vivo, po, 8 mg/kg/day): 0/10
- PANCREAS Within normal limits, % (rat, in vivo, po, 8 mg/kg/day): 100%
- PANCREAS Within normal limits, No Exam (rat, in vivo, po, 8 mg/kg/day): 10/10
- SPLEEN Notable or abnormal, % (rat, in vivo, po, 8 mg/kg/day): 0%
- SPLEEN Notable or abnormal, No Exam (rat, in vivo, po, 8 mg/kg/day): 0/10
- SPLEEN Within normal limits, % (rat, in vivo, po, 8 mg/kg/day): 100%
- SPLEEN Within normal limits, No Exam (rat, in vivo, po, 8 mg/kg/day): 10/10
- STOMACH Notable or abnormal, % (rat, in vivo, po, 8 mg/kg/day): 0%
- STOMACH Notable or abnormal, No Exam (rat, in vivo, po, 8 mg/kg/day): 0/10
- STOMACH Within normal limits, % (rat, in vivo, po, 8 mg/kg/day): 100%
- STOMACH Within normal limits, No Exam (rat, in vivo, po, 8 mg/kg/day): 10/10
- histopathology overall: toxicity to healthy tissues / organ damage (rats, oral 0.125 mg/kg/day to 8 mg/kg/day, 32 days): no significant organ damage; also recorded: no significant toxicity to healthy tissues
